Data: US12679851B2, “Methyl-substituted benzobisoxazole compound and use thereof” (TONGHUA DONGBAO PHARMACEUTICAL CO., LTD., priority 2020, dated 2026)

Tests used:
CYP1A2 = molecular target: T1, CYP1A2 (Homo sapiens, UniProt P05177); test: Cytochrome P450 isoenzyme inhibition, human liver microsomes; format: in vitro ADME
T1 construct: from tissue; host or cells: human liver microsomes
T1 sequence (P05177 1-516): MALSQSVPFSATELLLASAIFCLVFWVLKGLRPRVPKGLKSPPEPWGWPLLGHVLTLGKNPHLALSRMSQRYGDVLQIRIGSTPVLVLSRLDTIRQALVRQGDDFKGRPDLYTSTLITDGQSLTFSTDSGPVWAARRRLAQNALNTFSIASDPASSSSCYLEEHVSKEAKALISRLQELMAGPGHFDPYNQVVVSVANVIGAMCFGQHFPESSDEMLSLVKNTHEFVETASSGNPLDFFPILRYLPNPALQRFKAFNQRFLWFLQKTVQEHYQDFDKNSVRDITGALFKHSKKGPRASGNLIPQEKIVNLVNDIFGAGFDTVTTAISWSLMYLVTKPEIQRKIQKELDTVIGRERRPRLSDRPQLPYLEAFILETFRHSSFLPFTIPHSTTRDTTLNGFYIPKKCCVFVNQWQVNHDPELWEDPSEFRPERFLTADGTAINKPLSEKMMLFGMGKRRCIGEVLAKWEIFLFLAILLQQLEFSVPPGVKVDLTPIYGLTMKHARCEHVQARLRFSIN
Procedure: (§1) To test the inhibitory effects of the test compounds on the activities of human liver microsomal cytochrome P450 isoenzymes (CYP1A2, CYP2C9, CYP2C19, CYP2D6 and CYP3A4).
(§2) Firstly, the test compound (10.0 mM) was diluted in gradient to prepare a working solution (100× final concentration), and the working solution concentrations were 5.00, 1.50, 0.500, 0.150, 0.0500, 0.0150 and 0.00500 mM respectively. At the same time, the working solution of each positive inhibitor and its specific substrate mixture of P450 isoenzymes (CYP1A2, CYP2C9, CYP2C19, CYP2D6 and CYP3A4) was prepared; the human liver microsomes stored in the refrigerator below −60° C. were thawed on ice. When the human liver microsomes were completely dissolved, then diluted with potassium phosphate buffer (PB) to prepare a working solution with a certain concentration (0.253 mg/mL).
(§3) Firstly, 20.0 μL of substrate mixture was added to the reaction plate (20.0 μL of PB was added to the blank well), then 158 μL of human liver microsome working solution was added to the reaction plate, and the reaction plate was placed on ice for later use. At this time, 2.00 μL of test compound (N=1) and specific inhibitor (N=2) of each concentration were added to the corresponding well, and the group without inhibitor (test compound or positive inhibitor) was added with the corresponding organic solvent as a of control sample (control sample of test compound was dimethyl sulfoxide:methanol=1:1, positive control samples were all dimethyl sulfoxide:methanol=1:9). After pre-incubation in 37° C. water bath for 10 minutes, 20.0 μL of a coenzyme factor (NADPH) solution was added to the reaction plate and incubated in 37° C. water bath for 10 minutes. Then 400 μL of pre-cooled acetonitrile solution (internal standard containing 200 ng/mL tolbutamide and labetalol) was added to stop the reaction; the reaction plate was placed in a shaker and shaken for 10 min to mix evenly. Then the reaction plate was centrifuged at 4° C. and 4000 rpm for 20 min. 200 μL of supernatant was taken and added to 100 μL of water for sample dilution. Finally, the plate was sealed, shaken for 10 minutes to mix evenly for LC/MS/MS detection.

CYP3A4 = molecular target: T2, CYP3A4 (Homo sapiens, UniProt P08684); test: as above; format: in vitro ADME; conditions: CYP3A4-M
T2 construct: from tissue; host or cells: human liver microsomes
Procedure: as §1, §2, §3

CYP2D6 = molecular target: T3, CYP2D6 (Homo sapiens, UniProt P10635); test: as above; format: in vitro ADME
T3 construct: from tissue; host or cells: human liver microsomes
Procedure: as §1, §2, §3

CYP2C19 [1] = molecular target: T4, CYP2C19 (Homo sapiens, UniProt P33261); test: as above; format: in vitro ADME
T4 construct: human liver microsomes (HLM) were used as the incubation system; from tissue; host or cells: human liver microsomes
Procedure: as §1, §2, §3

CYP2C9 = molecular target: T5, CYP2C9 (Homo sapiens, UniProt P11712); test: as above; format: in vitro ADME
T5 construct: from tissue; host or cells: human liver microsomes
Procedure: as §1, §2, §3

GLP-1 receptor = GLP-1 receptor (Homo sapiens, UniProt P43220); test: Cell activity test in vitro (cAMP detection, GLP-1 HEK293 cells); format: cell-based; conditions: HEK293 host cell
Procedure: The cells were constructed by Wuxi New Drug Development Co., Ltd. Shanghai.
The compound was formulated with DMSO to a working concentration of 30 μM. In this test, the usage amount of each sample was 5 μL.
The pH was adjusted to 7.4 and the volume was fixed to 25 mL with HBSS 1×.
Preparation of cAMP detection reagent: 250 μL of cAMP-D2 and 250 μL of anti-cAMP cryptate reagent were added to 4 mL of lysis buffer, and mixed gently.
The test compound was diluted 3 times by 10 points with a starting concentration of 30 μM, and the dilutions were completed by Bravo.
The reference compound exenatide was diluted 3 times by 10 points with a starting concentration of 500 nM, and the dilutions were completed by Bravo.
• 1) 100 nL of compound was transferred to OptiPlate-384 plate using Echo. • 2) OptiPlate-384 plate was centrifuged at 1000 rpm for 5 seconds. c) Preparation of cell suspension • 1) A GLP-1 cell cryopreservation tube was quickly thawed in 37° C. warm water. • 2) The cell suspension was transferred to a Transfer 15 mL of centrifuge tube and gently rinsed with 10 mL of HBSS. • 3) The centrifuge tube was centrifuged at 1000 rpm at room temperature for 1 minute. • 4) The supernatant was discarded. • 5) The cells at the bottom were gently dispersed and gently rinsed with 10 mL of HBSS, then the cells were centrifuged for sedimentation, and finally the cells were re-suspended in experimental buffer. • 6) Cell density and activity were measured by using Vi-cell. • 7) The concentration of GLP-1 cells was diluted to 2.0*10^5/mL with the experimental buffer. • 8) […] of diluted cell suspension was transferred into OptiPlate-384 plate. • 9) The cells were incubated at room temperature for 30 minutes. d) Addition of detection reagents: • 1) 10 μL of 800 nM gradient diluted cAMP standard was added to the empty well of OptiPlate-384 plate. • 2) 10 μL of cAMP detection reagent was added. • 3) OptiPlate-384 plate was covered with TopSeal-A film and incubated for 60 min at room temperature.
The TopSeal-A was removed, and the EnVision reading was performed.

[2] = Cynomolgus monkey in vivo DMPK study; conditions: male cynomolgus monkeys, single oral 0.5 mg/kg
Procedure: Male cynomolgus monkeys were used as test animals, and the plasma concentration of the compound was determined after a single oral administration and the pharmacokinetic behavior was evaluated.
Two healthy male cynomolgus monkeys (fasting) were selected as the oral group. Oral vehicle was 20% hydroxypropyl-p-cyclodextrin aqueous solution. After the test compound was mixed with the vehicle, vortexed and sonicated to prepare 0.1 mg/mL approximately clear solution. The oral dosage of cynomolgus monkey was 0.5 mg/kg. After oral administration, whole blood was collected for a certain time to prepare plasma. The drug concentration was analyzed by LC-MS/MS method, and the pharmacokinetic parameters were calculated by Phoenix WinNonlin 6.3.

CYP2C19 [3] = molecular target: T4, CYP2C19; test: Cytochrome P450 isoenzyme time-dependent inhibition, human liver microsomes; format: in vitro ADME
Procedure: To test the time-dependent inhibitory effect of the test compounds on the activity of human liver microsomal cytochrome P450 isoenzyme CYP2C19.
The experiment was divided into two groups. In the first group, human liver microsomes (HLM) were used as the incubation system, and a series of concentrations of test samples were added to the incubation system, and then coenzyme factor (NADPH) solution was added, and pre-incubated at 37° C. for 30 minutes. After pre-incubation, the probe substrate solution was added, and after incubation for a certain time, the reaction was terminated; the amount of probe substrate metabolites produced in the incubation solution was measured, and the enzyme activity was calculated. The second group of reactions was to use human liver microsomes (HLM) as the incubation system, and a series of concentrations of test samples were added to the incubation system, and then potassium phosphate buffer was added, and pre-incubated at 37° C. for 30 minutes. After pre-incubation, a mixed solution of NADPH and probe substrate was added. After incubation for a certain time, the reaction was terminated, the amount of probe substrate metabolites produced in the incubation solution was measured, and the enzyme activity was calculated.
Firstly, the test compound (10.0 mM) was diluted in gradient to prepare a working solution (100× final concentration), and the working solution concentrations were 5.00, 1.65, 0.500, 0.165, 0.0500, 0.0165 and 0.00500 mM respectively. At the same time, the positive inhibitor of P450 isoenzyme CYP2C19, probe substrate and NADPH working solution were prepared; the human liver microsomes stored in the refrigerator below −60° C. were thawed on ice. When the human liver microsomes were completely dissolved, then diluted with potassium phosphate buffer (PB) to prepare a working solution with a certain concentration (0.169 mg/mL).
Then 147.5 μL of human liver microsome working solution was added to the reaction plate, and the reaction plate was placed on ice for use. […]

T4 sequence (P33261 whole entry): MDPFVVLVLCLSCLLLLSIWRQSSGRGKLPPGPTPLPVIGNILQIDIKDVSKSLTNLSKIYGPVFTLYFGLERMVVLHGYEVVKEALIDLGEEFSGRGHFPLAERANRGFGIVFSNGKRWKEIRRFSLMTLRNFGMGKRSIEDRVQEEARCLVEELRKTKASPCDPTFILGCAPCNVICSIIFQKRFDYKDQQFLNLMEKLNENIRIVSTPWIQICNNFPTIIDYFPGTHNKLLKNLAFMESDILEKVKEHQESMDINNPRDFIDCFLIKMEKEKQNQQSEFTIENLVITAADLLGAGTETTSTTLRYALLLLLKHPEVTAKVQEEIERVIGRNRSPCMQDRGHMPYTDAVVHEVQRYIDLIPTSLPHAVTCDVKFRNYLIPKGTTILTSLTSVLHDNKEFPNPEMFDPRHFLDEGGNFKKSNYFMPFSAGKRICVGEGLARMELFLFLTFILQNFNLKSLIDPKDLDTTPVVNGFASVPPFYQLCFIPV
T5 sequence (P11712 whole entry): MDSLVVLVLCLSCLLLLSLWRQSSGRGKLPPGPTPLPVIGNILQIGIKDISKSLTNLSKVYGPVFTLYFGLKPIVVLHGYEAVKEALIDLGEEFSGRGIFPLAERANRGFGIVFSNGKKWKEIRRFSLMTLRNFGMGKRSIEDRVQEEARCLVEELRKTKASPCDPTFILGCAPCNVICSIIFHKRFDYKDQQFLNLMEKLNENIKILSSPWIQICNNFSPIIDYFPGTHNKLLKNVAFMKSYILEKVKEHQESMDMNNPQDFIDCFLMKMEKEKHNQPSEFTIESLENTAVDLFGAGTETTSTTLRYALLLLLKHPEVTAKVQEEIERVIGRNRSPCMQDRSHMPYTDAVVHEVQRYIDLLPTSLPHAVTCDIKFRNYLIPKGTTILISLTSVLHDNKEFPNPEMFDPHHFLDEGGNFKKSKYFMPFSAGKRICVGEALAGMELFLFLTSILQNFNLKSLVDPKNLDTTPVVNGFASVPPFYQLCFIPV
T2 sequence (P08684 whole entry): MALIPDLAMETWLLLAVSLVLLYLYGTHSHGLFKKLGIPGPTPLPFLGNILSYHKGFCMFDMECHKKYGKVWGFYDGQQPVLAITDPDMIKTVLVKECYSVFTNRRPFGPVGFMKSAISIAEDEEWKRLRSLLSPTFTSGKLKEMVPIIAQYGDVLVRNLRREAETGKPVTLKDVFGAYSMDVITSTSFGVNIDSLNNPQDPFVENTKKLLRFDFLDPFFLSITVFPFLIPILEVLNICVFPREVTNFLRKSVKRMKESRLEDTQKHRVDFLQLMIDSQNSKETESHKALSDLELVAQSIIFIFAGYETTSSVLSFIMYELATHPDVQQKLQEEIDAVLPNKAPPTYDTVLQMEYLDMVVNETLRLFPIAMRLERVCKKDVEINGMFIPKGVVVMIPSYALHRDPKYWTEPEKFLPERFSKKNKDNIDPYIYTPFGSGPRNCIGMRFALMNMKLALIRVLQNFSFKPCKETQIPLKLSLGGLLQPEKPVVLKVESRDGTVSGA
Chain of GLP-1 receptor (P43220 24-463): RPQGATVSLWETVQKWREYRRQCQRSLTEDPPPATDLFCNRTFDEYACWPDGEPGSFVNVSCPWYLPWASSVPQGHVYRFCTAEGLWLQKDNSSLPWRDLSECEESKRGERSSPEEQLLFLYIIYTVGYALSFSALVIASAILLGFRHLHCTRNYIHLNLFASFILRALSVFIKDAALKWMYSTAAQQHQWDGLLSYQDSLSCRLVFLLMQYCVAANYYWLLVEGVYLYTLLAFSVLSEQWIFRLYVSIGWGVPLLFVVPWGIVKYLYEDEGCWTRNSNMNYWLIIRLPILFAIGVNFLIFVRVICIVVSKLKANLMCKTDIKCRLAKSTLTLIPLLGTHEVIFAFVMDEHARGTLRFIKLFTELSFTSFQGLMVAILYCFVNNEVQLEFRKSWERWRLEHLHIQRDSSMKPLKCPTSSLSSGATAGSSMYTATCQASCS
T3 sequence (P10635 whole entry): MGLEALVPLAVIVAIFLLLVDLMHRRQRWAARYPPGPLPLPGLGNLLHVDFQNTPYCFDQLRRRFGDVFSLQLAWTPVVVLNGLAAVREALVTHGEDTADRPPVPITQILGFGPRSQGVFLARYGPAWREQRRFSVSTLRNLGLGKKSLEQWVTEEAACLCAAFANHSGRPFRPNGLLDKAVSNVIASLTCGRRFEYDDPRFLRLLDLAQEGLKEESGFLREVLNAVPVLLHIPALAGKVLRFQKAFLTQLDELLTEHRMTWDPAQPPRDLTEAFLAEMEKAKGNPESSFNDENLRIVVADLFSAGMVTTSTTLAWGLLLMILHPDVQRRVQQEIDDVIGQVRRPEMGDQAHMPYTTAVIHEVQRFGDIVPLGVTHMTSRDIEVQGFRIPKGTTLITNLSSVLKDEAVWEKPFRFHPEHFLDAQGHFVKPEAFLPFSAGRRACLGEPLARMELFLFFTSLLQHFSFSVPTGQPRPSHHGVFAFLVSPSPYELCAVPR

## CC1(c2ccc(Cl)cc2F)Oc2cccc(C3CCN(Cc4nc5sc(C(=O)O)cc5n4C[C@@H]4CCO4)CC3)c2O1 (single isomer, unassigned) [Compound 004]
CYP1A2
  IC50: 43.7 µM
CYP3A4
  IC50: 40.8 µM
CYP2D6
  IC50: > 50 µM
CYP2C19 [1]
  IC50: 23.6 µM
CYP2C9
  IC50: 31.9 µM
GLP-1 receptor
  EC50: 0.0002 µM
[2]; cynomolgus monkey, plasma
  half-life: 3.94 h
  Cmax: 0.132 µM
[2]; DNAUC = AUCPO/Dose
  Oral DNAUC: 1056 nM · h/mpk

## CC1(c2ccc(Cl)cc2F)Oc2cccc(N3CCN(Cc4nc5sc(C(=O)O)cc5n4CC4CCO4)CC3)c2O1 (single isomer, unassigned) [Compound 005A]
CYP1A2
  IC50: > 50 µM
CYP3A4
  IC50: > 50 µM
CYP2D6
  IC50: > 50 µM
CYP2C19 [1]
  IC50: > 50 µM
CYP2C9
  IC50: 30.8 µM
CYP2C19 [3]
  Time-dependent inhibition (Yes or No): No
CYP2C19 [3]; 30 min pre-incubation with NADPH
  IC50: > 50 µM
CYP2C19 [3]; 30 min pre-incubation without NADPH
  IC50: 44.3 µM
GLP-1 receptor
  EC50: 0.00015 µM

## CC1(c2ccc(Cl)cc2F)Oc2cccc(C3CCN(Cc4nc5sc(C(=O)O)c(F)c5n4C[C@@H]4CCO4)CC3)c2O1 (single isomer, unassigned) [Compound 006]
CYP1A2
  IC50: 38.8 µM
CYP3A4
  IC50: 48.7 µM
CYP2D6
  IC50: > 50 µM
CYP2C19 [1]
  IC50: > 50 µM
CYP2C9
  IC50: 21.6 µM
GLP-1 receptor
  EC50: 0.00039 µM

## C[C@]1(c2ccc(C#N)cc2F)Oc2cccc(C3=CCN(Cc4nc5sc(C(=O)O)cc5n4C[C@@H]4CCO4)CC3)c2O1 [Compound 011A]
GLP-1 receptor
  EC50: 0.00033 µM

## C[C@]1(c2ccc(C#N)cc2F)Oc2cccc(C3=CCN(Cc4nc5cc(C(=O)O)sc5n4C[C@@H]4CCO4)CC3)c2O1 [Compound 011B]
GLP-1 receptor
  EC50: 0.00152 µM
